How the values were obtained:
[1] = test system: adult patients with essential tremor; assay: Example 16: Patient Global Impression of Change (PGI-C); type: in vivo, human; settings: for participants with PGI-C score minimally improved: Part A; for participants with PGI-C much improved / participants with PGI-C score reflecting no change in symptoms: Part B OLT
Description: (§2) Patients were scheduled for Safety Follow-up on Day 70 (±1 day) in the clinic for the final clinical trial assessment.

[2] = Example 16 Part B: treatment emergent adverse events, down-titration, discontinuation
Description: as §2

[3] = Within-participant escalating dose trial Part A: safety and tolerability; type: in vivo, human; settings: N = 8
Experimental: (§1) In Part A, an open label trial was conducted.

[4] = Within-participant escalating dose trial Part A (5-20 mg): pharmacokinetics; type: in vivo, human; settings: single 5 mg dose, healthy volunteers
Experimental: as §1

[5] = Phase 1 SAD/MAD safety and tolerability of formulation 3; type: in vivo, human; settings: single 60 mg without titration, 6 healthy volunteers
Experimental: This was a 2-part, Phase 1 double blind, placebo controlled trial to assess the safety, tolerability, pharmacokinetics, and pharmacodynamics (including the KSS, the KDT, the SQSQ and 24-hour EEG recordings), of single, ascending (Part A: 20, 40, and 60 mg) and multiple, ascending (Part B: 20 and 40 mg for 8 days) doses of the 20 mg tablet (formulation 3) in healthy participants. […] Variability in Cmax and AUC increased with increasing dose following a single oral dose of the 20 mg tablet formulation (formulation 3) (FIG. 16).
Adverse events for the doses of 20 and 40 mg were transient and occurred at a rate similar to placebo. The following TEAEs were observed, all of which were mild to moderate: […]

[6] = Within-participant escalating dose trial Part B: safety and tolerability; type: in vivo, human; settings: for dose levels well-tolerated with titration: titrated dosing schedule, per day
[7] = Part B RWD (RWAS), Day 56, n 6, change from randomization baseline
[8] = Part B Randomized Withdrawal (N = 11), arm (Formula (I) or placebo) not stated
[9] = Part B, reported by the same patient

CC(C)(C)NC(=O)CN1CCC(CNC(=O)c2cc(F)cc(Cl)c2)CC1 [compound of formula (I), N-((1-(2-(tert-butylamino)-2-oxoethyl)piperidin-4-yl)methyl)-3-chloro-5-fluorobenzamide]
PGI-C Score 1 very much improved ([1]; Part A (FAS), Day 7, n 6): 0 n (%)
PGI-C Score 2 Much improved ([1]; Part A (FAS), Day 7, n 6): 1 n (%)
PGI-C Score 3 minimally improved ([1]; Part A (FAS), Day 7, n 6): 2 (33.3) n (%)
PGI-C Score 4 no change ([1]; Part A (FAS), Day 7, n 6): 2 (33.3) n (%)
PGI-C Score 5 minimally worse ([1]; Part A (FAS), Day 7, n 6): 0 n (%)
PGI-C Score 6 much worse ([1]; Part A (FAS), Day 7, n 6): 1 (16.7) n (%)
PGI-C Score 7 very much worse ([1]; Part A (FAS), Day 7, n 6): 0 n (%)
PGI-C Score 1 very much improved ([1]; Part A (FAS), Day 14, n 6): 0 n (%)
PGI-C Score 2 Much improved ([1]; Part A (FAS), Day 14, n 6): 1 n (%)
PGI-C Score 3 minimally improved ([1]; Part A (FAS), Day 14, n 6): 5 (83.3) n (%)
PGI-C Score 4 no change ([1]; Part A (FAS), Day 14, n 6): 0 n (%)
PGI-C Score 5 minimally worse ([1]; Part A (FAS), Day 14, n 6): 0 n (%)
PGI-C Score 6 much worse ([1]; Part A (FAS), Day 14, n 6): 0 n (%)
PGI-C Score 7 very much worse ([1]; Part A (FAS), Day 14, n 6): 0 n (%)
participants with PGI-C score minimally improved ([1]; Day 7): 33.3%
participants with PGI-C score minimally improved ([1]; Day 14): 83.3%
PGI-C Score 1 very much improved ([1]; Part B OLT (FAS), Day 7, n 13): 0 n (%)
PGI-C Score 2 Much improved ([1]; Part B OLT (FAS), Day 7, n 13): 1 n (%)
PGI-C Score 3 minimally improved ([1]; Part B OLT (FAS), Day 7, n 13): 5 (38.5) n (%)
PGI-C Score 4 no change ([1]; Part B OLT (FAS), Day 7, n 13): 7 (53.8) n (%)
PGI-C Score 5 minimally worse ([1]; Part B OLT (FAS), Day 7, n 13): 0 n (%)
PGI-C Score 6 much worse ([1]; Part B OLT (FAS), Day 7, n 13): 0 n (%)
PGI-C Score 7 very much worse ([1]; Part B OLT (FAS), Day 7, n 13): 0 n (%)
PGI-C Score 1 very much improved ([1]; Part B OLT (FAS), Day 21, n 12): 0 n (%)
PGI-C Score 2 Much improved ([1]; Part B OLT (FAS), Day 21, n 12): 1 n (%)
PGI-C Score 3 minimally improved ([1]; Part B OLT (FAS), Day 21, n 12): 5 (41.7) n (%)
PGI-C Score 4 no change ([1]; Part B OLT (FAS), Day 21, n 12): 6 (50.0) n (%)
PGI-C Score 5 minimally worse ([1]; Part B OLT (FAS), Day 21, n 12): 0 n (%)
PGI-C Score 6 much worse ([1]; Part B OLT (FAS), Day 21, n 12): 0 n (%)
PGI-C Score 7 very much worse ([1]; Part B OLT (FAS), Day 21, n 12): 0 n (%)
PGI-C Score 1 very much improved ([1]; Part B OLT (FAS), Day 42, n 11): 0 n (%)
PGI-C Score 2 Much improved ([1]; Part B OLT (FAS), Day 42, n 11): 3 n (%)
PGI-C Score 3 minimally improved ([1]; Part B OLT (FAS), Day 42, n 11): 4 (36.4) n (%)
PGI-C Score 4 no change ([1]; Part B OLT (FAS), Day 42, n 11): 4 (36.4) n (%)
PGI-C Score 5 minimally worse ([1]; Part B OLT (FAS), Day 42, n 11): 0 n (%)
PGI-C Score 6 much worse ([1]; Part B OLT (FAS), Day 42, n 11): 0 n (%)
PGI-C Score 7 very much worse ([1]; Part B OLT (FAS), Day 42, n 11): 0 n (%)
participants with PGI-C much improved ([1]; Day 7): 7.7%
participants with PGI-C score reflecting no change in symptoms ([1]; Day 7): 53.8%
participants with PGI-C much improved ([1]; Day 42): 27.3%
participants with PGI-C score reflecting no change in symptoms ([1]; Day 42): 36.4%
PGI-C Score 1 very much improved [1, 7]: 0 n (%)
PGI-C Score 2 Much improved [1, 7]: 0 n (%)
PGI-C Score 3 minimally improved [1, 7]: 2 (33.3) n (%)
PGI-C Score 4 no change [1, 7]: 3 (50.0) n (%)
PGI-C Score 5 minimally worse [1, 7]: 0 n (%)
PGI-C Score 6 much worse [1, 7]: 0 n (%)
PGI-C Score 7 very much worse [1, 7]: 1 (16.7) n (%)
TEAE associated with discontinuation: Confusional state ([2]; Part B): 1
TEAE associated with discontinuation: Cyst ([2]; Part B): 1
TEAE associated with discontinuation: Disturbance in attention ([2]; Part B): 1
TEAE leading to down titration: Confusional state ([2]; Part B): 1
TEAE leading to down titration: Disturbance in attention ([2]; Part B): 1
TEAE leading to down titration: Dizziness postural ([2]; Part B): 1
TEAE leading to down titration: Paraesthesia ([2]; Part B): 1
TEAE leading to down titration: Somnolence ([2]; Part B): 1
participants who discontinued administration ([2]; Part B): three of 14 participants
participants who down-titrated ([2]; Part B): Four of 14 participants
TEAE Anxiety, participants ([2]; Part B Open Label (N = 14)): 1
TEAE Cognitive Disorder, participants ([2]; Part B Open Label (N = 14)): 1
TEAE Constipation, participants ([2]; Part B Open Label (N = 14)): 6
TEAE Dizziness, participants ([2]; Part B Open Label (N = 14)): 4
TEAE Fatigue, participants ([2]; Part B Open Label (N = 14)): 3
TEAE Headache, participants ([2]; Part B Open Label (N = 14)): 1
TEAE Insomnia, participants ([2]; Part B Open Label (N = 14)): 2
TEAE Paraesthesia, participants ([2]; Part B Open Label (N = 14)): 2
TEAE Fatigue, participants [2, 8]: 1
TEAE Headache, participants [2, 8]: 1
dosing well-tolerated with titration ([2]; Part B, essential tremor patients): up to 120 mg
TEAE associated with discontinuation: Gait disturbances [2, 9]: 1
TEAE associated with discontinuation: Hypotension [2, 9]: 1
TEAE associated with discontinuation: Muscle fatigue [2, 9]: 1
TEAE associated with discontinuation: Speech disorder [2, 9]: 1
Dry eye ([3]; 5 mg): 1 (12.5%) n (%)
Eye disorders ([3]; 5 mg): 2 (25.0%) n (%)
General Disorders and Administration Site Conditions ([3]; 5 mg): 3 (37.5%) n (%)
Headache ([3]; 5 mg): 2 (25.0%) n (%)
Lethargy ([3]; 5 mg): 1 (12.5%) n (%)
Medical device site dermatitis ([3]; 5 mg): 1 (12.5%) n (%)
Nervous System Disorders ([3]; 5 mg): 2 (25.0%) n (%)
Participants with at least one TEAE ([3]; 5 mg): 5 (62.5%) n (%)
Vessel puncture site thrombosis ([3]; 5 mg): 1 (12.5%) n (%)
Dry eye ([3]; 10 mg): 2 (25.0%) n (%)
Eye disorders ([3]; 10 mg): 2 (25.0%) n (%)
General Disorders and Administration Site Conditions ([3]; 10 mg): 3 (37.5%) n (%)
Headache ([3]; 10 mg): 0 n (%)
Lethargy ([3]; 10 mg): 0 n (%)
Medical device site dermatitis ([3]; 10 mg): 2 (25.0%) n (%)
Nervous System Disorders ([3]; 10 mg): 0 n (%)
Participants with at least one TEAE ([3]; 10 mg): 5 (62.5%) n (%)
Vessel puncture site thrombosis ([3]; 10 mg): 1 (12.5%) n (%)
Dry eye ([3]; 20 mg): 0 n (%)
Eye disorders ([3]; 20 mg): 0 n (%)
General Disorders and Administration Site Conditions ([3]; 20 mg): 1 (12.5%) n (%)
Headache ([3]; 20 mg): 1 (12.5%) n (%)
Medical device site dermatitis ([3]; 20 mg): 0 n (%)
Nervous System Disorders ([3]; 20 mg): 1 (12.5%) n (%)
Participants with at least one TEAE ([3]; 20 mg): 3 (37.5%) n (%)
Vessel puncture site thrombosis ([3]; 20 mg): 0 n (%)
Dry eye ([3]; Overall 5-20 mg): 3 (37.5%) n (%)
Eye disorders ([3]; Overall 5-20 mg): 3 (37.5%) n (%)
Headache ([3]; Overall 5-20 mg): 3 (37.5%) n (%)
Lethargy ([3]; Overall 5-20 mg): 2 (25.0%) n (%)
Medical device site dermatitis ([3]; Overall 5-20 mg): 3 (37.5%) n (%)
Nervous System Disorders ([3]; Overall 5-20 mg): 3 (37.5%) n (%)
Participants with at least one TEAE ([3]; Overall 5-20 mg): 7 (87.5%) n (%)
Vessel puncture site thrombosis ([3]; Overall 5-20 mg): 2 (25.0%) n (%)
time by which plasma concentrations were quantifiable [4]: ≤ 0.50 h
tolerability [5]: not tolerated
maximum tolerated dosage in the titration scheme ([6]; highest dose tested 120 mg): no maximum tolerated dosage was identified
Cardiac Disorders ([6]; human, in vivo, 31 days): 4 n (%)
Chest discomfort ([6]; human, in vivo, 31 days): 2 n (%)
Dizziness ([6]; human, in vivo, 31 days): 3 n (%)
General Disorders and Administration Site Conditions ([6]; human, in vivo, 31 days): 6 n (%)
Headache ([6]; human, in vivo, 31 days): 2 n (%)
Intoxicated sensation ([6]; human, in vivo, 31 days): 2 n (%)
Medical device site dermatitis ([6]; human, in vivo, 31 days): 3 n (%)
Nervous System Disorders ([6]; human, in vivo, 31 days): 5 n (%)
Palpitations ([6]; human, in vivo, 31 days): 2 n (%)
Participants with at least one TEAE ([6]; human, in vivo, 31 days): 12 n (%)
treatment related ECG or EEG abnormalities ([6]; in vivo): no treatment related ECG or EEG abnormalities
dose levels well-tolerated with titration [6]: ≤ 120 mg

CC(C)(C)NC(=O)CN1CCC(CNC(=O)c2cc(F)cc(Cl)c2)CC1.Cl [compound of formula (II), N-((1-(2-(tert-butylamino)-2-oxoethyl)piperidin-4-yl)methyl)-3-chloro-5-fluorobenzamide hydrochloride]
dose levels well-tolerated with titration [6]: up to 120 mg

Reference: US20250295646A1, “METHODS OF USE OF T-TYPE CALCIUM CHANNEL MODULATORS” (Praxis Precision Medicines, Inc., priority 2022, published 2025)
